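Values below derive from 48-hour exposures of cells grown in 96-well plates, with endpoints linearly interpolated between the two concentrations bracketing the appropriate inhibition level. Abbreviation: GI50, concentration required for 50% inhibition of growth.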 Activity calls are given as the source filed them. No stated cut-off is given here; in the data, active = GI50 up to about 1.1 µM and inactive = higher.
Experiments:
Assay in all cases: NCI tumour cell line growth inhibition, 48 h
[1] = test system: CCRF-CEM
[2] = test system: EKVX
[3] = test system: HCT-15
[4] = test system: HL-60
[5] = test system: HOP-62
[6] = test system: IGROV-1
[7] = test system: KM12
[8] = test system: LOX IMVI
[9] = test system: Malme-3M
[10] = test system: NCI-H460
[11] = test system: OVCAR-8
[12] = test system: RXF 393
[13] = test system: SF-268
[14] = test system: SK-MEL-2
[15] = test system: SNB-19
[16] = test system: TK-10
[17] = test system: U-251
[18] = test system: UACC-257
[19] = test system: UO-31
[20] = test system: SK-OV-3

CCOC(=O)c1c2ccccc2n2c(=O)n(-c3ccccc3)nnc12
GI50 [1]: 1.4 µM (inactive)
GI50 [2]: > 100 µM (inactive)
GI50 [3]: > 76.9 µM
GI50 [4]: 23.8 µM (inactive)
GI50 [5]: 27.5 µM (inactive)
GI50 [6]: 79.3 µM (inactive)
GI50 [7]: 61 µM (inactive)
GI50 [8]: 7.93 µM (inactive)
GI50 [9]: > 100 µM (inactive)
GI50 [10]: 30.7 µM (inactive)
GI50 [11]: > 100 µM (inactive)
GI50 [12]: > 55.6 µM (inactive)
GI50 [13]: > 100 µM (inactive)
GI50 [14]: > 25.8 µM (inactive)
GI50 [15]: > 100 µM (inactive)
GI50 [16]: > 100 µM (inactive)
GI50 [17]: 98.4 µM (inactive)
GI50 [18]: > 33.3 µM (inactive)
GI50 [19]: 74.8 µM (inactive)

CC(C)=CCc1c(OC(=O)c2c(C)cc(O)cc2O)cc(CO)c(CO)c1O
GI50 [1]: > 10 µM (inactive)
GI50 [2]: 32.4 µM (inactive)
GI50 [3]: 17.7 µM
GI50 [4]: 4.5 µM (inactive)
GI50 [6]: 19.2 µM (inactive)
GI50 [7]: 16.2 µM (inactive)
GI50 [8]: 16.2 µM (inactive)
GI50 [9]: 17.5 µM (inactive)
GI50 [10]: 17.6 µM (inactive)
GI50 [11]: 25 µM (inactive)
GI50 [13]: 26.7 µM (inactive)
GI50 [14]: 21.3 µM (inactive)
GI50 [20]: 16.2 µM (inactive)
GI50 [15]: 8.07 µM (inactive)
GI50 [16]: 26.3 µM (inactive)
GI50 [17]: 17.5 µM (inactive)
GI50 [18]: 29.9 µM (inactive)
GI50 [19]: 12.2 µM (inactive)

COC(=O)C1OC(Oc2cc(O)c3c(=O)cc(-c4ccc(O)cc4)oc3c2)C(O)C(O)C1O (configuration not stated)
GI50 [1]: > 100 µM (inactive)
GI50 [2]: > 100 µM (inactive)
GI50 [3]: > 100 µM
GI50 [4]: > 100 µM (inactive)
GI50 [5]: > 100 µM (inactive)
GI50 [6]: > 100 µM (inactive)
GI50 [7]: > 100 µM (inactive)
GI50 [8]: > 100 µM (inactive)
GI50 [9]: > 100 µM (inactive)
GI50 [10]: > 100 µM (inactive)
GI50 [11]: > 100 µM (inactive)
GI50 [12]: > 100 µM (inactive)
GI50 [13]: > 100 µM (inactive)
GI50 [14]: > 100 µM (inactive)
GI50 [20]: > 100 µM (inactive)
GI50 [15]: > 100 µM (inactive)
GI50 [17]: > 100 µM (inactive)
GI50 [18]: > 100 µM (inactive)
GI50 [19]: > 100 µM (inactive)

NCCCCN(CCCN)Cc1ccccc1
GI50 [1]: > 100 µM (inactive)
GI50 [2]: > 100 µM (inactive)
GI50 [3]: > 100 µM
GI50 [4]: > 100 µM (inactive)
GI50 [5]: > 100 µM (inactive)
GI50 [6]: 60 µM (inactive)
GI50 [7]: > 100 µM (inactive)
GI50 [10]: > 100 µM (inactive)
GI50 [11]: > 100 µM (inactive)
GI50 [12]: > 100 µM (inactive)
GI50 [13]: > 100 µM (inactive)
GI50 [14]: > 100 µM (inactive)
GI50 [20]: > 100 µM (inactive)
GI50 [15]: > 100 µM (inactive)
GI50 [16]: > 100 µM (inactive)
GI50 [17]: > 100 µM (inactive)
GI50 [18]: > 100 µM (inactive)
GI50 [19]: > 100 µM (inactive)

Nc1ncnc2c1ncn2C=C=CCO
GI50 [1]: > 100 µM (inactive)
GI50 [3]: > 100 µM
GI50 [5]: > 100 µM (inactive)
GI50 [7]: > 100 µM (inactive)
GI50 [8]: > 100 µM (inactive)
GI50 [9]: > 100 µM (inactive)
GI50 [10]: > 100 µM (inactive)
GI50 [11]: > 100 µM (inactive)
GI50 [12]: > 100 µM (inactive)
GI50 [14]: > 100 µM (inactive)
GI50 [15]: > 100 µM (inactive)
GI50 [16]: > 100 µM (inactive)
GI50 [17]: > 100 µM (inactive)
GI50 [18]: > 100 µM (inactive)
GI50 [19]: > 100 µM (inactive)

COc1ccc(-c2nnc(-c3nsc4ccccc34)o2)cc1
GI50 [2]: 38.8 µM (inactive)
GI50 [3]: 31.6 µM
GI50 [5]: 44.3 µM (inactive)
GI50 [6]: 58.6 µM (inactive)
GI50 [7]: 49 µM (inactive)
GI50 [8]: 47.9 µM (inactive)
GI50 [10]: 45.4 µM (inactive)
GI50 [11]: 93.5 µM (inactive)
GI50 [12]: 32.5 µM (inactive)
GI50 [13]: 65.6 µM (inactive)
GI50 [14]: > 100 µM (inactive)
GI50 [15]: > 100 µM (inactive)
GI50 [16]: > 100 µM (inactive)
GI50 [17]: 79.6 µM (inactive)
GI50 [18]: > 100 µM (inactive)
GI50 [19]: 25.2 µM (inactive)

CCCCC1=C(Br)C(=C(Br)Br)OC1=O
GI50 [1]: 2.45 µM (inactive)
GI50 [2]: 2.49 µM (inactive)
GI50 [3]: 2.2 µM
GI50 [4]: 1.85 µM (inactive)
GI50 [5]: 7.96 µM (inactive)
GI50 [6]: 2.25 µM (inactive)
GI50 [7]: 3.29 µM (inactive)
GI50 [8]: 1.87 µM (inactive)
GI50 [9]: 2.25 µM (inactive)
GI50 [10]: 4.56 µM (inactive)
GI50 [11]: 3.17 µM (inactive)
GI50 [12]: 2.09 µM (inactive)
GI50 [13]: 2.61 µM (inactive)
GI50 [14]: 2.79 µM (inactive)
GI50 [20]: 17.6 µM (inactive)
GI50 [15]: 7.89 µM (inactive)
GI50 [17]: 5.47 µM (inactive)
GI50 [18]: 2.48 µM (inactive)
GI50 [19]: 11.9 µM (inactive)

Cn1ccc(C(=O)NCCN(CCNC(=O)c2ccn(C)c(=O)c2O)CCNC(=O)c2ccn(C)c(=O)c2O)c(O)c1=O
GI50 [1]: > 100 µM (inactive)
GI50 [3]: > 100 µM
GI50 [4]: > 100 µM (inactive)
GI50 [5]: > 100 µM (inactive)
GI50 [6]: > 100 µM (inactive)
GI50 [7]: > 100 µM (inactive)
GI50 [9]: > 100 µM (inactive)
GI50 [10]: > 100 µM (inactive)
GI50 [11]: > 100 µM (inactive)
GI50 [12]: > 100 µM (inactive)
GI50 [13]: > 100 µM (inactive)
GI50 [14]: > 100 µM (inactive)
GI50 [20]: > 100 µM (inactive)
GI50 [15]: > 100 µM (inactive)
GI50 [16]: > 100 µM (inactive)
GI50 [17]: > 100 µM (inactive)
GI50 [18]: > 100 µM (inactive)
GI50 [19]: > 100 µM (inactive)

Reference: ChEMBL document CHEMBL1201862, “PubChem BioAssay data set” (2004)
